Results: patent US5470714A, “One-step free fatty acid determination method” (Lidak Pharmaceuticals, priority 1993, dated 1995)
Read-outs that look alike come from different tables or passages of the source.

Assays:
[1] = biological target: ADIFAB (Acrylodan derivatized native rat I-FABP, Lys27) (Rattus norvegicus, UniProt P02693); test: biochemical; format: binding; details: for Kd relative to oleate (fold greater than oleate): normalized to oleate
Procedure: In most of the studies FFA was added to ADIFAB, in a buffer (A) consisting of 10 Mm HEPES, 150 Mm NaCI, 5 mM KCI, and 1 mM NaHPO4 at pH 7.4, as the sodium salt of the fatty acid. […] FA bind to most surfaces and values of the total FA concentration ([FAT]) were corrected for FA binding to cuvette and container walls. This binding was determined using trace amounts of […] labeled FA and, separately, ADIFAB florescence to determine the degree of FA loss upon transfer from one container to another. […] To minimize FA binding to surfaces, the monomer concentrations of stock solutions of the Na salts were maintained at pH >9.0 in water, and were warmed to >37° C. just prior to use. The polyunsaturated forms of the FA are subject to oxidation and it was observed that dissociation constants for binding to ADIFAB (Kd) were considerably greater for the oxidized FA. Care was taken to reduce the exposure of the FA salts to oxygen (all handling was carried out under Argon) and to store them at -20° C.
The concentrations of FA in the aqueous phase (FFA) and FA bound to ADIFAB ([FAb ]) were determined from the ratio of fluorescence emission intensities at 432 and 505 nm (R). The values FFA and [FAb ]were related to the ratio of intensities essentially by the method of Grynkiewicz et. al. (Grynkiewicz, G., Poenie, M., & Tsien, R. Y. (1985) J. Biol. Chem. 260, 3440-3450), according to which:
[FAb ]=[ADIFABtotal ]Q(fr)/(1-fr+FRQ) FR
are the ADIFAB intensities with zero and saturating concentrations of FFA, Ro is the intensity ratio in the absence of FFA and Rmax is the value when ADIFAB is saturated.
Because of the limiting solubility of long chain FA in aqueous solution Rmax and Q cannot. in general, be determined directly. To determine Rmax and Q, ADIFAB was titrated with lauric acid (12:0) whose high CMC allowed maximum R values (~10-11) to be measured that were considerably greater than with longer chain FA. From this titration a linear correlation was found between Q and R. Using Q, R pairs predicted by this relationship, a two parameter (Kd and Rmax) least squares analysis of each FA was done using the equation for equilibrium binding;
1/[FAb ]=(Kd/[ADIFAB])/FFA+1/[ADIFAB] (3)
Optimal Q and Rmax values obtained in this analysis were in the range 17-22 and 10 and 13, respectively, with average values of 19.5 and 11.5. Final Kd values for each FA were then determined by least squares analysis of equation (3) with Q and Rmax fixed at 19.5 and 11.5, respectively.
Fluorescence measurements to monitor Acrylodan fluorescence in various solvents, to monitor adduct formation, and to obtain complete spectra were carried out using an SLM 8000C fluorometer. Measurements of the 505/432 intensity ratios (R values) used to monitor the FFA titrations of ADIFAB were done with either the SLM 8000C or a Perkin-Elmer MPF-2A fluorometer.
ADIFAB dose response to FFA and FFA aggregate formation was measured. The ratio of fluorescent intensities at emission wavelengths of 505/432 nm were measured as a function of added Na salts of several FFA. Resulting data are depicted graphically in FIGS. 6A, 6B and 6C. Conditions were similar to those used in FIG. 3 except that 100mM EGTA was used in obtaining the data depicted in FIGS. 6A and 6B, while the data depicted in FIG. 6C was obtained using 1 mM CaCl2. Measured R values were used to determine FFA and [FFAb]using equations (1) and (2). The solid curves through the data of FIGS. 6A and 6C represent best fits of equation (3) obtained using a non-linear least squares algorithm. Aggregate formation was detected by measuring 90° light scattering from FFA in the buffer of FIG. 3 containing no added calcium and titrated with the Na salts of the FFA as described above, see FIG. 6B. The smoothed curves through the data, intended to guide-the-eye, indicate that aggregate formation, as detected by a sharp increase in light scattering, is approximately coincident with the maximum R value observed in the experiment related to FIG. 6A. […]

ADIFAB = biological target: T1, ADIFAB (Rattus norvegicus, UniProt P02693); test: Specificity of ADIFAB: effect of potential competitor molecules on ADIFAB fluorescence and on oleic acid binding; details: up to maximum concentrations: lysolecithin 100mM, sphingosine 100mM, bilirubin 50mM, leukotriene C4 32mM, 5-HETE 10mM, prostaglandin D2 5mM; from ethanol 0.1% by volume
T1 construct: acrylodan covalently attached at Lys27 (chemical label, no substitution)
T1 sequence (P02693 1-132): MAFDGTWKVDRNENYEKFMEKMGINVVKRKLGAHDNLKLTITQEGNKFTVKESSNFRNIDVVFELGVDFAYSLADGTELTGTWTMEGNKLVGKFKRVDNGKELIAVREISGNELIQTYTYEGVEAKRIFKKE
Procedure: ADIFAB is highly specific for long chain FA. […] The interaction between ADIFAB and a variety of molecules that are either formed in association with FA or coexist with FA in plasma and might therefore compete with FA for binding to ADI FAB were examined. The following molecules were investigated up to the maximum concentrations indicated in parenthesis; lysolecithin (100mM), sphingosine (1 00mM), bilirubin (50mM), leukotriene C4 (32mM), (5S)-5- Hydroxy-6,8, 11,14-eicasatetaenoic acid (5-HETE) (10mM), and prostaglandin D2 (5mM). […] (Since these molecules are water insoluble they were added to ADIFAB from ethanol, at 0.1% by volume, which itself causes an Ro increase by about 12% but has no effect on the Kd for oleate binding. )

[2] = Fluorescence response of fluorescent-FABP probes to fatty acid binding; format: biochemical
Excerpt: Principles and exemplary methods for constructing probes as described and defined herein and methods for determining FFA levels are described in detail below. Using these principles fourteen different fluorescent-FABP derivatives have been constructed. This has been done using 3 different native FABPs (rat intestine (I-FABP), human adipocyte (A-FABP), and human heart (H-FABP)) plus 4 site-specific mutants of two of these (I-FABP, (Thr83Cys83, Thr81Cys81, Lys27Cys27 and H-FABP, Thr27Lys27), and these proteins have been derivatized with 4 different fluorophores (acrylodan, danzyl aziridine, 4-[N-[(2-iodoacetoxy)ethyl]-N-methylamino]-7-nitrobenz-2-oxa1,3-diazole ester (IANBDE), 4-[N-[(2-iodoacetoxy)ethyl]-N-methylamino]-7-nitrobenz-2-oxa-1,3-diazole these derivatives can serve as FFA probes, to some degree. To date, however, ADIFAB remains the one that has optimal properties for current applications. Obviously, by occupying, partially, the binding site with a fluorophore, FA must compete for its site and therefore the FA binding constant for the FABP may be altered from the native protein. This is indeed the case for ADIFAB for which the Kd is about 10 fold greater than for the native protein. So long as FA can bind, however, the derivatized molecule can still function as a FFA probe and so long as the probe's dynamic range is sufficient (as it is for ADIFAB, IANBDE and IANBDA) then FFA levels over a wide range, including those that are physiologic, can be measured.
The Cys27 mutant of I-FABP (Lys27 to Cys27) with acrylodan, IANBDE and IANBDA have also been labeled using the technique described. […] This is the behavior predicted from the construction principles set forth herein, and reflects the shorter tethering arm to Cys27 as compared to Lys27 which prevents the deeper insertion into the binding site that is observed in the Lys27 derivative. […] Thus, those skilled in the art can with considerable confidence predict whether protein modifications and/or choice of label will result in a FFA responsive probe.
Site-directed mutagenesis was used to introduce a cysteine residue at positions 82 or 84, in place of the threonine residues that are normally at this position. Mutagenesis was carried out by annealing a synthetic prirner with a single mismatched base to the above derived expression vector. The primer was extended and ligated in vitro, and the resulting heteroduplex was used to transfect the host strain. The transfected host was screened for the mutated DNA by hybridization with the mutating oligonucleotide. Mutated plasmid DNA was isolated, retransformed into the host strain, and its structure confirmed by sequencing the recombinant DNA in regions defined by probes flanking the mutated region. This modified protein was expressed in the same system and purified by the same methods as for the native protein. Typical yields of purified protein were approximately 50 mg/liter cell culture. The mutated I-FABP protein was fluorescently derivatized by inserting a fluorescent group (which reacts specifically with free SH groups) at the newly created cysteine residue. The cysteine residue was inserted at positions 82 (replacing a threonine residue) and/or at residue 84 (also a threonine residue) since both these positions face outward from the FFA binding pocket but are in close proximity to the tryptophan at position 83 (about 3.5Å lateral separation along the b strand and about 10Å vertical separation between the centers of the tryptophan and fluorescent residues). […] Thus, either the direct emission of the fluorescent group and/or the rate of resonance energy transfer between Trp83 and the fluorescent group was postulated to change. In a non-limiting prior specific example, the dansyl derivative ACRYLODAN®(6-acryloly-2dimethylamenonaphthalene) was used to modify the mutated FABP and this probe was designated FAD508.
ADIFAB dose response to FFA and FFA aggregate formation was measured. […]

[3] = FA-ADIFAB Dissociation Constants, Kd, no added calcium, FIG. 6A, buffer A pH 7.4

Molecule: CCCCC/C=C\C/C=C\C/C=C\C/C=C\CCCC(=O)O [ARACHIDONATE, arachidonate]
- Kd [1, 3]: 1.63 ± 0.03 µM
- Kd ([1]; Kd in the presence of calcium, 1 mM calcium): 1.67 µM
- Kd relative to oleate (fold greater than oleate) [1]: ~5.8 fold

Molecule: CCCCCCCCCCCC(=O)O [laurate]
- Kd ([1]; laurate (12:0), binding detectable but considerably weaker, read-out: Kd (shorter chain FA, bound)): > 200 µM

Molecule: CCCCC/C=C\C/C=C\C/C=C\C=C\[C@@H](O)CCCC(=O)O [5-HETE, (5S)-5-Hydroxy-6,8, 11,14-eicasatetaenoic acid]
- change in ADIFAB fluorescence by the molecule itself (ADIFAB): none of these molecules, either themselves cause a change in ADIFAB fluorescence
- displacement of oleic acid binding to ADIFAB (ADIFAB): nor do they displace oleic acid binding to ADIFAB

Molecule: CCCCCCCCCCCCC/C=C/[C@@H](O)[C@@H](N)CO [sphingosine]
- change in ADIFAB fluorescence by the molecule itself (ADIFAB): none of these molecules, either themselves cause a change in ADIFAB fluorescence
- displacement of oleic acid binding to ADIFAB (ADIFAB): nor do they displace oleic acid binding to ADIFAB

Molecule: CCCCC/C=C\C/C=C\CCCCCCCC(=O)O [LINOLEATE, linoleate]
- Kd [1, 3]: 0.97 ± 0.02 µM
- Kd relative to oleate (fold greater than oleate) [1]: ~3.5 fold

Molecule: CCCCC/C=C\C\C=C/C=C/C=C/[C@@H](SC[C@H](NC(=O)CC[C@H](N)C(=O)O)C(=O)NCC(=O)O)[C@@H](O)CCCC(=O)O [leukotriene C4]
- change in ADIFAB fluorescence by the molecule itself (ADIFAB): none of these molecules, either themselves cause a change in ADIFAB fluorescence
- displacement of oleic acid binding to ADIFAB (ADIFAB): nor do they displace oleic acid binding to ADIFAB

Molecule: CCCCC[C@H](O)/C=C/[C@H]1C(=O)C[C@H](O)[C@@H]1C/C=C\CCCC(=O)O [prostaglandin D2]
- change in ADIFAB fluorescence by the molecule itself (ADIFAB): none of these molecules, either themselves cause a change in ADIFAB fluorescence
- displacement of oleic acid binding to ADIFAB (ADIFAB): nor do they displace oleic acid binding to ADIFAB

Molecule: CC/C=C\C/C=C\C/C=C\CCCCCCCC(=O)O [LINOLENATE, linolenate]
- ADIFAB sensitivity to FFA levels (lowest detectable level) [1]: about 20 nM
- Kd [1, 3]: 2.5 ± 0.1 µM
- Kd relative to oleate (fold greater than oleate) [1]: ~8.9 fold

Molecule: lysolecithin
- change in ADIFAB fluorescence by the molecule itself (ADIFAB): none of these molecules, either themselves cause a change in ADIFAB fluorescence
- displacement of oleic acid binding to ADIFAB (ADIFAB): nor do they displace oleic acid binding to ADIFAB

Molecule: C=CC1=C(C)/C(=C/c2[nH]c(Cc3[nH]c(/C=C4\NC(=O)C(C)=C4C=C)c(C)c3CCC(=O)O)c(CCC(=O)O)c2C)NC1=O [bilirubin]
- change in ADIFAB fluorescence by the molecule itself (ADIFAB): none of these molecules, either themselves cause a change in ADIFAB fluorescence
- displacement of oleic acid binding to ADIFAB (ADIFAB): nor do they displace oleic acid binding to ADIFAB

B1: ADIFAB: Acrylodan derivatized recombinant native protein (I-FABP), labeled at Lys27 (conjugate, UniProt P02693 2-132, looked up)
Fatty acid-binding protein, …: AFDGTWKVDRNENYEKFMEKMGINVVKRKLGAHDNLKLTITQEGNKFTVKESSNFRNIDVVFELGVDFAYSLADGTELTGTWTMEGNKLVGKFKRVDNGKELIAVREISGNELIQTYTYEGVEAKRIFKKE
modifications: acrylodan label at Lys27
- Kd of FA relative to the native protein (fold greater) ([2]; ADIFAB versus native I-FABP): about 10 fold
- increase in the 505/432 emission ratio on addition of FFA ([2]; FIG. 6A, up to): ≤ 25 fold

B2: IANBDE derivative: Cys27 mutant of I-FABP (Lys27 to Cys27) labeled with IANBDE (conjugate, UniProt P02693 2-132, looked up, variant K27C)
Fatty acid-binding protein, …: AFDGTWKVDRNENYEKFMEKMGINVVCRKLGAHDNLKLTITQEGNKFTVKESSNFRNIDVVFELGVDFAYSLADGTELTGTWTMEGNKLVGKFKRVDNGKELIAVREISGNELIQTYTYEGVEAKRIFKKE
modifications: IANBDE (NBD ester) label
- responsiveness of the probe to FA binding, in words [2]: among the most sensitive
- reduction in intensity at 550 nm ([2]; with 1 mM oleate, I-FABP Cys27 mutant): 60%
